Legend:
Assay type in all cases: in vivo
[1] = system: Sinapis arvensis (wild mustard); assay: Greenhouse post-emergence spray, plant damage rating; conditions: S. arvensis, alone and combined
Method: (§1) Three species of weed, used in each test: Hypochoeris radicata (false dandelion), Sinapis, arvensis (wild mustard), and Avena sativa (oats), were grown in a greenhouse facility in 5.5 cm square pots using a potting soil mix comprising peat, vermiculite, sand, and 4-10-10 fertilizer. Water-soluble 20-20-20 fertilizer was used as a supplement for the plants as required. The plants were selected for use based on uniformity and quality and were potted separately. One plant per pot each of H. radicata (6–10 leaves) and S. arvensis (4–6 leaves) were used. Six to eight plants of A. sativa (2–4 leaves) were used per pot. After spraying with a herbicidal composition (as described below) the pots were arranged in a randomized complete block design in sub-irrigated watering trays. Six to ten replicates (pots) were used per treatment.
(§2) Herbicidal treatments were applied using a spray chamber fitted with a TeeJet 8006E flat fan nozzle (available from Spraying Systems Co., Wheaton, Ill.), calibrated to spray at a volume of 60 gpa at 40 psi. Treatment solutions were freshly prepared for each experiment. Plant damage was assessed at 10 to 14 days after treatment using a pre-transformed 0–10 rating scale (0 representing no damage, 10 representing plant death) in accordance with the procedure outlined in Statistical Methods in Agricultural Research, Little, T. M. et al, J. Wiley and Sons, 1975, pp. 119–120, 218.

Avena sativa (oats) = assay: as above; conditions: A. sativa, alone and combined
Method: as §1, §2

[2] = system: Hypochoeris radicata (false dandelion); assay: as above; conditions: H. radicata, alone and combined
Method: as §1, §2

Morningglory = assay: Greenhouse spray, phytotoxicity and mortality over time; conditions: for Mortality: plants died of 4
Method: (§3) Herbicidal treatments were applied using a spray chamber fitted with a TeeJet 8006E flat fan nozzle (available from Spraying Systems Co., Wheaton, Ill.), calibrated to spray at a volume of 60 gpa at 40 psi. Treatment solutions were freshly prepared for each experiment. […] M. et al, J. Wiley and Sons, 1975, pp. 119–120, 218.
(§4) In a greenhouse facility four plant species were grown in 5.5 cm square pots using a potting soil mix comprising peat, vermiculite, sand and 4-10-10 fertilizer. Water soluble 20-20-20 fertilizer was used as a supplement for the plants as required. The plant species used were corn, oats, radish and morningglory. The plants were selected for use based on uniformity and quality. The corn plants used were in the 3 to 4 leaf stage and two plants were present in each pot. The oats used were in the 2 to 4 leaf stage and four plants were present per pot. The radish plants used were in the 3 to 5 leaf stage and one plant was used per pot. The morningglory were in the 2 to 4 leaf stage with one plant per pot. After spraying with a herbicidal formulation, the pots were arranged in a randomized complete block design in sub-irrigated watering trays, and included a water-treated control treatment. Four replicates (pots) were used for each treatment.
(§5) Herbicidal treatments were applied and recorded as in Example 1.

Oats = assay: as above
Method: as §3, §4, §5

[3] = Table 2 set 1: Round-Up 0.1%, Sodium pelargonate 0.1%
[4] = Table 2 set 2: Round-Up 0.1%, Sodium pelargonate 0.1% (so in the source)
[5] = Table 2 set 3: Round-Up 0.1%, Sodium pelargonate 0.1% (so in the source)

With `CCCCCCCCC(=O)[O-].[Na+]` [Sodium pelargonate] the “Phytotoxicity (%) Observed” value [1, 3] was 0%, the “Phytotoxicity (%) Observed” value [1, 4] was 0% and the “Phytotoxicity (%) Observed” value [1, 5] was 0%. The “Phytotoxicity (%) Observed” value (Avena sativa (oats); [3]) was 0%, the “Phytotoxicity (%) Observed” value (Avena sativa (oats); [4]) was 0% and the “Phytotoxicity (%) Observed” value (Avena sativa (oats); [5]) was 1%. The “Phytotoxicity (%) Observed” value [2, 3] was 0%, the “Phytotoxicity (%) Observed” value [2, 4] was 0% and the “Phytotoxicity (%) Observed” value [2, 5] was 0%. For the same compound, the “Phyto (Phytotoxicity, 0–10 rating scale)” value (Morningglory; 2 Days after Treatment) was 0, the Mortality (Morningglory; 2 Days after Treatment) was 0 and the “Phyto (Phytotoxicity, 0–10 rating scale)” value (Morningglory; 4 Days after Treatment) was 0. For the same compound, the Mortality (Morningglory; 4 Days after Treatment) was 0, the “Phyto (Phytotoxicity, 0–10 rating scale)” value (Morningglory; 7 Days after Treatment) was 0 and the Mortality (Morningglory; 7 Days after Treatment) was 0. The “Phyto (Phytotoxicity, 0–10 rating scale)” value (Morningglory; 9 Days after Treatment) was 0, the Mortality (Morningglory; 9 Days after Treatment) was 0 and the “Phyto (Phytotoxicity, 0–10 rating scale)” value (Morningglory; 11 Days after Treatment) was 0. The Mortality (Morningglory; 11 Days after Treatment) was 0, the “Phyto (Phytotoxicity, 0–10 rating scale)” value (Morningglory; 16 Days after Treatment) was 0 and the Mortality (Morningglory; 16 Days after Treatment) was 0. For the same compound, the “Phyto (Phytotoxicity, 0–10 rating scale)” value (Morningglory; 18 Days after Treatment) was 0, the Mortality (Morningglory; 18 Days after Treatment) was 0 and the “Phyto (Phytotoxicity, 0–10 rating scale)” value (Morningglory; 21 Days after Treatment) was 0. The Mortality (Morningglory; 21 Days after Treatment) was 0, the “Phyto (Phytotoxicity, 0–10 rating scale)” value (Morningglory; 23 Days after Treatment) was 0 and the Mortality (Morningglory; 23 Days after Treatment) was 0. For the same compound, the “Phyto (Phytotoxicity, 0–10 rating scale)” value (Morningglory; 25 Days after Treatment) was 0, the Mortality (Morningglory; 25 Days after Treatment) was 0 and the “Phyto (Phytotoxicity, 0–10 rating scale)” value (Morningglory; 28 Days after Treatment) was 0. The Mortality (Morningglory; 28 Days after Treatment) was 0, the “Phyto (Phytotoxicity, 0–10 rating scale)” value (Morningglory; 30 Days after Treatment) was 0 and the Mortality (Morningglory; 30 Days after Treatment) was 0. The “Phyto (Phytotoxicity, 0–10 rating scale)” value (Morningglory; 32 Days after Treatment) was 0, the Mortality (Morningglory; 32 Days after Treatment) was 0 and the “Phyto (Phytotoxicity, 0–10 rating scale)” value (Morningglory; 35 Days after Treatment) was 0. For the same compound, the Mortality (Morningglory; 35 Days after Treatment) was 0, the “Phyto (phytotoxicity ratings, 0–10 rating scale)” value (Oats; 2 Days after Treatment) was 0 and the “Phyto (phytotoxicity ratings, 0–10 rating scale)” value (Oats; 4 Days after Treatment) was 0. The “Phyto (phytotoxicity ratings, 0–10 rating scale)” value (Oats; 7 Days after Treatment) was 0, the “Phyto (phytotoxicity ratings, 0–10 rating scale)” value (Oats; 9 Days after Treatment) was 0 and the “Phyto (phytotoxicity ratings, 0–10 rating scale)” value (Oats; 11 Days after Treatment) was 0. The “Phyto (phytotoxicity ratings, 0–10 rating scale)” value (Oats; 16 Days after Treatment) was 0, the “Phyto (phytotoxicity ratings, 0–10 rating scale)” value (Oats; 18 Days after Treatment) was 0 and the “Phyto (phytotoxicity ratings, 0–10 rating scale)” value (Oats; 21 Days after Treatment) was 0. The “Phyto (phytotoxicity ratings, 0–10 rating scale)” value (Oats; 23 Days after Treatment) was 0, the “Phyto (phytotoxicity ratings, 0–10 rating scale)” value (Oats; 25 Days after Treatment) was 0 and the “Phyto (phytotoxicity ratings, 0–10 rating scale)” value (Oats; 28 Days after Treatment) was 0. For the same compound, the “Phyto (phytotoxicity ratings, 0–10 rating scale)” value (Oats; 30 Days after Treatment) was 0, the “Phyto (phytotoxicity ratings, 0–10 rating scale)” value (Oats; 32 Days after Treatment) was 0 and the “Phyto (phytotoxicity ratings, 0–10 rating scale)” value (Oats; 35 Days after Treatment) was 0.
